Laboratory results taken from patent US10945992B1, “Dosage forms of rofecoxib and related methods” (Tremeau Pharmaceuticals, Inc., priority 2019, dated 2021).
Read-outs that look alike come from different tables or passages of the source.

Experiment: TRM-201-PK-102 single-dose four-period crossover pharmacokinetic study, fasted healthy subjects
Format: in vivo, human
Details: human, plasma, oral; for Cmax / AUC(0-inf): 102 study
Protocol: A Single-Dose, Open-Label, Phase 1, Four-Period Crossover Pharmacokinetic Study of TRM-201 (Rofecoxib) 12.5 mg, 17.5 mg, 20 mg and 25 mg Administered to Healthy Subjects in a Fasting State, with Comparison to Historical Pharmacokinetic Parameters of Previously Marketed Rofecoxib (“TRM-201-PK-102” or “102 PK Study”)
This was a single-center, open-label four-period crossover PK study of TRM-201. The study included 24 subjects who received TRM-201 as a single dose of 12.5 mg, 17.5 mg, 20 mg and 25 mg to assess the PK of TRM-201 in healthy volunteers under fasted conditions. Subjects were randomized to one of four treatment sequences. The PK data from the current study along with the data from the TRM-201-PK-101 study (Example 4) was used to compare to historical pharmacokinetic parameters of previously marketed rofecoxib, all in a fasted state.
In each of the four dosing periods, subjects fasted overnight for at least 10 hours before study drug dosing. While fasting, subjects had nothing to eat and only water to drink. Water was permitted as desired, except for the period between 1 hour before and 1 hour after study drug dosing (excepting as permitted for dosing). After the 2-hour PK blood sample, subjects were allowed one 250-mL cup of clear apple juice. After the 4-hour PK blood sample, subjects were served a light lunch. Following the light lunch, subjects received standardized meals according to the clinic's standard procedures that were scheduled at consistent times and at least 15 minutes before or 15 minutes after PK sampling time points. Blood was withdrawn for PK analysis at predefined time points. For each dosing period the last time point was 120 hours after dosing with study drug (Day 6). After the 120 hour PK sample, the EOP procedures was completed, subjects remained in-clinic for the in-between dose period day (Days 7, 14, and 21) and began the next dosing period starting with an overnight fast for at least 10 hours on Day −1 of the subsequent dosing period. Pharmacokinetic and safety endpoints were evaluated.
The study drug, TRM-201, was an immediate-release tablet that contained 12.5 mg rofecoxib, 17.5 mg rofecoxib, 20 mg rofecoxib or 25 mg rofecoxib. The 7.25-mm diameter tablets were off-white, round, and uncoated with no markings. TRM-201 tablets were for oral administration.
For each sample, approximately 3 mL of blood were drawn. The samples were obtained by a straight stick or via an in-dwelling intravenous (IV) catheter in a forearm vein. Additional details for the collection, processing, storage, and shipping of PK samples were provided in the study manual.
Pharmacokinetic samples will be analyzed using a validated assay for rofecoxib in human plasma. Assay results and validation details will be provided in a separate bioanalytical report. The following PK parameters for rofecoxib will be calculated as primary endpoints using standard noncompartmental methods: AUC0-∞ and Cmax. Secondary endpoints include Tmax, and t1/2. Additional PK parameters (e.g., CL/F, and Vd/F) will also be calculated using standard noncompartmental methods.
Individual plasma concentrations for rofecoxib and PK sampling time deviation data will be presented in a data listing. Plasma concentration data will be summarized by time point using the following descriptive statistics: number of subjects, arithmetic mean, SD, coefficient of variation (CV), geometric mean, natural-log-scale SD, geometric CV, median, minimum, and maximum. Individual plasma concentration versus actual time profiles were presented on both linear and semilogarithmic scales. Additionally, arithmetic mean concentration versus scheduled time profiles were presented on linear scales and geometric means on semilogarithmic scales.
The PK parameters of rofecoxib were analyzed based on the actual sampling times. […]

[1] = 25 mg, read-out: arithmetic mean plasma concentration
[2] = 25 mg, read-out: geometric mean plasma concentration

## CS(=O)(=O)c1ccc(C2=C(c3ccccc3)C(=O)OC2)cc1 [TRM-201, 4-[4-(methylsulfonyl)phenyl]-3-phenyl-2(5H)-furanone]
25 mg, 41-52 years, read-out: arithmetic mean Cmax
  Cmax: 326 ng/mL
25 mg, 41-52 years, read-out: geometric mean AUC0-∞
  AUC(0-inf): 4580 ng·h/mL
25 mg, 41-52 years, read-out: geometric mean Cmax
  Cmax: 321 ng/mL
25 mg, 53-60 years, read-out: arithmetic mean AUC0-∞
  AUC(0-inf): 4940 ng·h/mL
25 mg, 53-60 years, read-out: arithmetic mean Cmax
  Cmax: 354 ng/mL
25 mg, 53-60 years, read-out: geometric mean AUC0-∞
  AUC(0-inf): 4880 ng·h/mL
25 mg, 53-60 years, read-out: geometric mean Cmax
  Cmax: 347 ng/mL
25 mg, Black or African-American subjects, read-out: arithmetic mean AUC0-∞
  AUC(0-inf): 3990 ng·h/mL
25 mg, Black or African-American subjects, read-out: arithmetic mean Cmax
  Cmax: 340 ng/mL
25 mg, Black or African-American subjects, read-out: geometric mean AUC0-∞
  AUC(0-inf): 3940 ng·h/mL
25 mg, Black or African-American subjects, read-out: geometric mean Cmax
  Cmax: 339 ng/mL
25 mg, Hispanic or Latino subjects, read-out: arithmetic mean AUC0-∞
  AUC(0-inf): 4980 ng·h/mL
25 mg, Hispanic or Latino subjects, read-out: arithmetic mean Cmax
  Cmax: 358 ng/mL
25 mg, Hispanic or Latino subjects, read-out: geometric mean AUC0-∞
  AUC(0-inf): 4870 ng·h/mL
25 mg, Hispanic or Latino subjects, read-out: geometric mean Cmax
  Cmax: 351 ng/mL
25 mg, White subjects, read-out: arithmetic mean AUC0-∞
  AUC(0-inf): 4800 ng·h/mL
25 mg, White subjects, read-out: arithmetic mean Cmax
  Cmax: 351 ng/mL
25 mg, White subjects, read-out: geometric mean AUC0-∞
  AUC(0-inf): 4650 ng·h/mL
25 mg, White subjects, read-out: geometric mean Cmax
  Cmax: 341 ng/mL
25 mg, body weight 47-70 kg, read-out: arithmetic mean AUC0-∞
  AUC(0-inf): 4450 ng·h/mL
25 mg, body weight 47-70 kg, read-out: arithmetic mean Cmax
  Cmax: 385 ng/mL
25 mg, body weight 47-70 kg, read-out: geometric mean AUC0-∞
  AUC(0-inf): 4310 ng·h/mL
25 mg, body weight 47-70 kg, read-out: geometric mean Cmax
  Cmax: 376 ng/mL
25 mg, body weight 70.1-77 kg, read-out: arithmetic mean AUC0-∞
  AUC(0-inf): 5470 ng·h/mL
25 mg, body weight 70.1-77 kg, read-out: arithmetic mean Cmax
  Cmax: 371 ng/mL
25 mg, body weight 70.1-77 kg, read-out: geometric mean AUC0-∞
  AUC(0-inf): 5410 ng·h/mL
25 mg, body weight 70.1-77 kg, read-out: geometric mean Cmax
  Cmax: 368 ng/mL
25 mg, body weight 77.1-90 kg, read-out: arithmetic mean AUC0-∞
  AUC(0-inf): 4130 ng·h/mL
25 mg, body weight 77.1-90 kg, read-out: arithmetic mean Cmax
  Cmax: 299 ng/mL
25 mg, body weight 77.1-90 kg, read-out: geometric mean AUC0-∞
  AUC(0-inf): 4040 ng·h/mL
25 mg, body weight 77.1-90 kg, read-out: geometric mean Cmax
  Cmax: 294 ng/mL
25 mg, non-Hispanic or non-Latino subjects, read-out: arithmetic mean AUC0-∞
  AUC(0-inf): 4280 ng·h/mL
25 mg, non-Hispanic or non-Latino subjects, read-out: arithmetic mean Cmax
  Cmax: 340 ng/mL
25 mg, non-Hispanic or non-Latino subjects, read-out: geometric mean AUC0-∞
  AUC(0-inf): 4150 ng·h/mL
25 mg, non-Hispanic or non-Latino subjects, read-out: geometric mean Cmax
  Cmax: 331 ng/mL
[1]
  concentration at 15 minutes: 5.63 ng/mL
  concentration at 45 minutes: 159 ng/mL
[2]
  concentration at 15 minutes: 1.37 ng/mL
  concentration at 45 minutes: 97.6 ng/mL
male, 12.5 mg, males, read-out: arithmetic mean AUC0-∞
  AUC(0-inf): 1750 ng·h/mL
male, 12.5 mg, males, read-out: arithmetic mean Cmax
  Cmax: 132 ng/mL
male, 12.5 mg, males, read-out: geometric mean AUC0-∞
  AUC(0-inf): 1580 ng·h/mL
male, 12.5 mg, males, read-out: geometric mean Cmax
  Cmax: 127 ng/mL
male, 17.5 mg, males, read-out: arithmetic mean AUC0-∞
  AUC(0-inf): 2860 ng·h/mL
male, 17.5 mg, males, read-out: arithmetic mean Cmax
  Cmax: 201 ng/mL
male, 17.5 mg, males, read-out: geometric mean AUC0-∞
  AUC(0-inf): 2710 ng·h/mL
male, 17.5 mg, males, read-out: geometric mean Cmax
  Cmax: 196 ng/mL
male, 20 mg, males, read-out: arithmetic mean AUC0-∞
  AUC(0-inf): 3130 ng·h/mL
male, 20 mg, males, read-out: arithmetic mean Cmax
  Cmax: 234 ng/mL
male, 20 mg, males, read-out: geometric mean AUC0-∞
  AUC(0-inf): 2940 ng·h/mL
male, 20 mg, males, read-out: geometric mean Cmax
  Cmax: 224 ng/mL
male, 25 mg, males, read-out: arithmetic mean AUC0-∞
  AUC(0-inf): 4080 ng·h/mL
male, 25 mg, males, read-out: arithmetic mean Cmax
  Cmax: 302 ng/mL
male, 25 mg, males, read-out: geometric mean AUC0-∞
  AUC(0-inf): 3940 ng·h/mL
male, 25 mg, males, read-out: geometric mean Cmax
  Cmax: 298 ng/mL
male, 25 mg, printed 'For males' (second statement, after the females' arithmetic means), read-out: geometric mean AUC0-∞
  AUC(0-inf): 5020 ng·h/mL
male, 25 mg, printed 'For males' (second statement, after the females' arithmetic means), read-out: geometric mean Cmax
  Cmax: 382 ng/mL
